Reference: PMC9841527 (Journal of Medicinal Chemistry, 2022)

Assays:
Dnmt3a-Dnmt3L = Dnmt3a-Dnmt3L (Mus musculus, UniProt O88508); assay type: biochemical
PCIF1 = PCIF1 (Homo sapiens, UniProt Q9H4Z3); assay type: biochemical
MettL5-Trm112 = MettL5-Trm112 (Homo sapiens, UniProt Q9NRN9); assay type: biochemical
EZH2 complex = EZH2 complex (Homo sapiens, UniProt Q15910); assay: Selectivity assay, EZH2 complex; assay type: biochemical; conditions: compound 10 μM, 3H-SAM 1 μM
MettL16 = molecular target: T1, MettL16 (Homo sapiens, UniProt Q86W50); assay: Selectivity assay, MettL16; assay type: biochemical; conditions: [I] = 10 μM, [SAM] = 160 μM or 30 μM
T1 sequence (Q86W50 1-562): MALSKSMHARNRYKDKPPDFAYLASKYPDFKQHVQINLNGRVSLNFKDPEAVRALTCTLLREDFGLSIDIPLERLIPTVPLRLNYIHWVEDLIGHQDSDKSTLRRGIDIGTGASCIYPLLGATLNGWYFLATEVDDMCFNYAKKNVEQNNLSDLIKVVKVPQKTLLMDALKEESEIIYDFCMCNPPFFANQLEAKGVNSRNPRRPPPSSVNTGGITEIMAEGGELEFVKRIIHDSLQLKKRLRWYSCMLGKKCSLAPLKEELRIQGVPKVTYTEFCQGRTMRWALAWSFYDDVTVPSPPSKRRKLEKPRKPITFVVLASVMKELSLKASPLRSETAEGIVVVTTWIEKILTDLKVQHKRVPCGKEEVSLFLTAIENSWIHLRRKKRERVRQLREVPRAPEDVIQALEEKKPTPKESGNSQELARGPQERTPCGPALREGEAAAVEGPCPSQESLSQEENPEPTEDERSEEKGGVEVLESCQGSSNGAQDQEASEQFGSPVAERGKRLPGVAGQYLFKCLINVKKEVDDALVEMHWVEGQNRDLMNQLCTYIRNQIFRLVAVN

PRMT1 = PRMT1 (Homo sapiens, UniProt Q99873); assay: Selectivity assay, PRMT1; assay type: biochemical; conditions: compound 10 μM, 3H-SAM 1 μM
Chain of PRMT1 (Q99873 whole entry): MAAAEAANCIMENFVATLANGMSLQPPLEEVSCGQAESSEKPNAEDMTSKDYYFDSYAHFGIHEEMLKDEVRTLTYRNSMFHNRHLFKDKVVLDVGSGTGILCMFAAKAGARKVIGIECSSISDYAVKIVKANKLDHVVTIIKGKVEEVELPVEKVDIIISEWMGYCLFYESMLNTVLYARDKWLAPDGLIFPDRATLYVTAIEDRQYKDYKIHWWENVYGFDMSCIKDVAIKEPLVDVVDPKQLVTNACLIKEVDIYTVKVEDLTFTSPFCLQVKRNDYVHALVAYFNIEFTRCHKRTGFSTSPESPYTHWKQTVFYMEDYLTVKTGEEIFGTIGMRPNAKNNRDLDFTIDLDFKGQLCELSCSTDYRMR

CamA [1] = molecular target: T2, CamA (Clostridioides difficile, UniProt Q183J3); assay type: biochemical
T2 sequence (Q183J3 1-577): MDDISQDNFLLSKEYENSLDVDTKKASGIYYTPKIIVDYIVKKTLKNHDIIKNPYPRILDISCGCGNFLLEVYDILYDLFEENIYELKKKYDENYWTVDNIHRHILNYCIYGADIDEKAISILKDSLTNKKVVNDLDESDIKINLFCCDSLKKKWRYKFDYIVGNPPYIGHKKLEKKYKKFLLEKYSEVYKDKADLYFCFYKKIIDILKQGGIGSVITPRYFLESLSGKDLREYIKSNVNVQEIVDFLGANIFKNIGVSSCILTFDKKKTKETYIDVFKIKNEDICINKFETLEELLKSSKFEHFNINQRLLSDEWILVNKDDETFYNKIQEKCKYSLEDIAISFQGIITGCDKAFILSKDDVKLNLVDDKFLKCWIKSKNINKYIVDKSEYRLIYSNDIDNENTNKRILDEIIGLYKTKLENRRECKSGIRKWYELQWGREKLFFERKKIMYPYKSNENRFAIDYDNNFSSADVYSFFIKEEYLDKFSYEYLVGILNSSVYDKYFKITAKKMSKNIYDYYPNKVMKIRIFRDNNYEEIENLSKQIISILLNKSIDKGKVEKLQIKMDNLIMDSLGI

Dam = molecular target: T3, Dam (Escherichia coli, UniProt P0AEE8); assay type: biochemical
T3 sequence (P0AEE8 1-278): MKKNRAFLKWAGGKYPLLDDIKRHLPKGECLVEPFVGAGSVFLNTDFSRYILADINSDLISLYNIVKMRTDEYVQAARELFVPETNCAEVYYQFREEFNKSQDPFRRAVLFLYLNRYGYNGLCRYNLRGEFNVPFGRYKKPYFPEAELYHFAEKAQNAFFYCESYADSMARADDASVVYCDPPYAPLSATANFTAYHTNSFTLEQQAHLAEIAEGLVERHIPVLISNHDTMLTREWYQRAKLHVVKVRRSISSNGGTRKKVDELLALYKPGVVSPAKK

[2] = molecular target: T4, A1 adenosine receptor (A1AR) (Homo sapiens, UniProt P30542); assay: A1AR agonist radioligand binding assay; conditions: compound 10 μM, [3H]CCPA 1 nM, transfected CHO cell membranes
T4 sequence (P30542 1-326): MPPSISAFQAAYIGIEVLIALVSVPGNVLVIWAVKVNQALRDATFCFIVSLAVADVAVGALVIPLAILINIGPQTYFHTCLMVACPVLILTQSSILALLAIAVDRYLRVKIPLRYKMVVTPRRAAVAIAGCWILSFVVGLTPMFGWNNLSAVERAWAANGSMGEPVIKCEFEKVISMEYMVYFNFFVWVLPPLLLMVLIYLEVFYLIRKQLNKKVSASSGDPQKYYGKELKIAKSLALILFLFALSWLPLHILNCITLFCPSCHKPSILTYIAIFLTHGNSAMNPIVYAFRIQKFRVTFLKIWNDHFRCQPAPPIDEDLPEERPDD

MettL3-MettL14 = MettL3-MettL14 (Homo sapiens, UniProt Q86U44); assay: Selectivity assay, MettL3-MettL14; assay type: biochemical; conditions: [I] = 10 μM, [SAM] = 20 μM, 5 mM NaCl, or CamA conditions
Chain of MettL3-MettL14 (Q86U44 whole entry): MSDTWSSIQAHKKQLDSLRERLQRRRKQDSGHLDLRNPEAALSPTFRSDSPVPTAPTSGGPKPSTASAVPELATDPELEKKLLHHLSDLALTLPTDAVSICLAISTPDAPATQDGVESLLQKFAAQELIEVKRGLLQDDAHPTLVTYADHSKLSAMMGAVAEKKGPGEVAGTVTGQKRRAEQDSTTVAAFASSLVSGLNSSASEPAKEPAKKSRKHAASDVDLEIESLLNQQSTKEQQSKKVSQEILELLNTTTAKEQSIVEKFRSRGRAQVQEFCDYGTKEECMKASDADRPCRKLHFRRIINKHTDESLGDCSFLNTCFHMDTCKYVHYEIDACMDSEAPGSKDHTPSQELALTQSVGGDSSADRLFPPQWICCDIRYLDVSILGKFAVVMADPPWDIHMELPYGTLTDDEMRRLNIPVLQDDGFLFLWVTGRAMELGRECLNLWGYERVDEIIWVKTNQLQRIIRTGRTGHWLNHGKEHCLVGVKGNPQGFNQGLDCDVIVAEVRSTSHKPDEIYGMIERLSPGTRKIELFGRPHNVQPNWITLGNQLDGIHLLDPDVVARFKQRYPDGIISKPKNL
Chain of MettL3-MettL14 (Q9HCE5 whole entry partner): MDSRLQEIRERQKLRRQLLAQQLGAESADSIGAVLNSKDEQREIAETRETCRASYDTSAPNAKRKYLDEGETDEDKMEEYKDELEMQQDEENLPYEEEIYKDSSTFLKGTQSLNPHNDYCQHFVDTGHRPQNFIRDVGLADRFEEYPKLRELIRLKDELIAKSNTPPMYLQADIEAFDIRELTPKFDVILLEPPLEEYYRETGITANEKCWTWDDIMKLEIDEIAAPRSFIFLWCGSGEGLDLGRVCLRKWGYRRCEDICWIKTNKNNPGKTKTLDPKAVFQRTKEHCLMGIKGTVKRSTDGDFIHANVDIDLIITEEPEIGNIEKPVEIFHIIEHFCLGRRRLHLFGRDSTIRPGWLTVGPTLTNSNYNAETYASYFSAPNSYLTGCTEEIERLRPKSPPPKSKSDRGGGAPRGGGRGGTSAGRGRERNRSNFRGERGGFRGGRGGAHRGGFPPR

CamA [3] = molecular target: T2, CamA; assay: Isothermal titration calorimetry; assay type: binding

Chain of MettL5-Trm112 (Q9NRN9 whole entry): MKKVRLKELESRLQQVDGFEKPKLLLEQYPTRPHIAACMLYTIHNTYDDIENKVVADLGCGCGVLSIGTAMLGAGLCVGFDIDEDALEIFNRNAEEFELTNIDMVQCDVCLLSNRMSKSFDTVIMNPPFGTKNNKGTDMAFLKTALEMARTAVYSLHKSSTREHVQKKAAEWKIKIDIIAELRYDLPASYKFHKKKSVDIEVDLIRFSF
Chain of MettL5-Trm112 (Q9UI30 whole entry partner): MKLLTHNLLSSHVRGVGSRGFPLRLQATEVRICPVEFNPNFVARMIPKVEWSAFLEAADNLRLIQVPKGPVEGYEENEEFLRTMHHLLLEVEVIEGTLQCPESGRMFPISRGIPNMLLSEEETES
Chain of PCIF1 (Q9H4Z3 whole entry): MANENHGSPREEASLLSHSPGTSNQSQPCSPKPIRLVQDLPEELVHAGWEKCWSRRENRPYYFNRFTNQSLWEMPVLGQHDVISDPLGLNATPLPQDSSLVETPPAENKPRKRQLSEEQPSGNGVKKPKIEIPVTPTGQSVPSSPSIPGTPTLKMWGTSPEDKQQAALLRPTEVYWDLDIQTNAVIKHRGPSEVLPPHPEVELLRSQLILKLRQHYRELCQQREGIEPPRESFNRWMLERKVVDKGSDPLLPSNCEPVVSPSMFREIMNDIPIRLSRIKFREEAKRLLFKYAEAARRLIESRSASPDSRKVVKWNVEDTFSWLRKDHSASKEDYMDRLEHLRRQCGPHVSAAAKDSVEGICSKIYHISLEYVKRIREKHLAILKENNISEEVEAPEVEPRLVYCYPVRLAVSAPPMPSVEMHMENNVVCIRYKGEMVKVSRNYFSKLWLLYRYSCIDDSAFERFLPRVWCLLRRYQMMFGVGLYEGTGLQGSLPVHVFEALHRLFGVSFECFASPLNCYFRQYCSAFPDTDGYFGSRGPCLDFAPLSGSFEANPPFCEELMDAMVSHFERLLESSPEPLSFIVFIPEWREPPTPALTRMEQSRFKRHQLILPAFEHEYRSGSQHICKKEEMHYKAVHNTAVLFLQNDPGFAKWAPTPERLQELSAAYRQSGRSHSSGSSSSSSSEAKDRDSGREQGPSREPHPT

`CC(C)(C)OC(=O)N1CCC(CCCNc2ncnc3c2ncn3[C@@H]2O[C@H](CO)[C@@H](O)[C@H]2O)CC1` [Compound 39, tert-Butyl-4-(3-((9-((2R,3R,4S,5R)-3,4-dihydroxy-5-(hydroxymethyl)tetrahydrofuran-2-yl)-9H-purin-6-yl)amino)propyl)piperidine-1-carboxylate] was tested, and the “inhibition of Dnmt3a-Dnmt3L” value (Dnmt3a-Dnmt3L) was “none of them showed any significant inhibition”, the “inhibition of PCIF1” value (PCIF1) was “none of them showed any significant inhibition” and the “inhibition of MettL5-Trm112” value (MettL5-Trm112) was “none of them showed any significant inhibition”. For the same compound, the “inhibition of EZH2 complex” value (EZH2 complex) was “none of them showed any significant inhibition”, the “inhibition of MettL16” value (MettL16) was “none of them showed any significant inhibition” and the “inhibition of PRMT1” value (PRMT1) was “none of them showed any significant inhibition”. For the same compound, the “higher potency, fold” value (CamA [1]) was 12 ×, the “inhibition of Dam” value (Dam) was “none of them showed any significant inhibition” and the “inhibition of control radioligand specific binding, A1AR” value [2] was “minimal inhibition of specific binding”. The “inhibition of MettL3-MettL14” value (MettL3-MettL14) was “none of them showed any significant inhibition”, the Kd (CamA [3]; KD ± SD, ITC, 25 °C) was roughly 200 nM and the “KD improved, fold” value (CamA [3]; from that of compound 37) was roughly 8 ×.

With `OC[C@H]1O[C@@H](n2cnc3c(NCCCc4ccc(O)cc4)ncnc32)[C@H](O)[C@@H]1O` [Compound 16, (2R,3S,4R,5R)-2-(Hydroxymethyl)-5-(6-((3-(4-hydroxyphenyl)propyl)amino)-9H-purin-9-yl)tetrahydrofuran-3,4-diol] the “inhibition of Dnmt3a-Dnmt3L” value (Dnmt3a-Dnmt3L) was “none of them showed any significant inhibition”, the “inhibition of PCIF1” value (PCIF1) was “none of them showed any significant inhibition” and the “inhibition of MettL5-Trm112” value (MettL5-Trm112) was “none of them showed any significant inhibition”. The “inhibition of EZH2 complex” value (EZH2 complex) was “none of them showed any significant inhibition”, the “inhibition of MettL16” value (MettL16) was “none of them showed any significant inhibition” and the “inhibition of PRMT1” value (PRMT1) was “none of them showed any significant inhibition”. For the same compound, the “lower IC50 value, fold” value (CamA [1]) was roughly 2.7 X, the “inhibition of Dam” value (Dam) was “none of them showed any significant inhibition” and the “inhibition of control radioligand specific binding, A1AR” value [2] was “minimal inhibition of specific binding”. The “inhibition of MettL3-MettL14” value (MettL3-MettL14) was “none of them showed any significant inhibition” and the “lower KD value, fold” value (CamA [3]; compared to compound 15) was roughly 6.5 X.
